Tests used:
Format in all cases: in vivo, Sprague-Dawley rats
[1] = system: CHA(N^6-cyclohexyladenosine)-induced pancreatitis; assay: Effect on CHA-induced pancreatitis (serum amylase); details: 10 mg/kg orally 30 minutes before CHA; for inhibition %: inhibition of CHA-induced serum amylase increase; for serum amylase (10^3 IU/ℓ): male rats, CHA 3.2 mg/kg orally, blood after 24 hours, Normal 4.1 ± 0.2, Control 28.3 ± 10.0
Description: Male Sprague-Dawley rats, weighing 245-260 g, were deprived of food but allowed free access to water for 24 hours CHA was given orally at a dose of 3.2 mg/kg. After 24 hours, animals were killed and blood samples were collected. Subsequently, the blood serum was prepared and amylase concentration was determined. The test compounds (1) to (5) (10 mg/kg) or vehicle (to control group) was given orally 30 minutes before CHA administration. In Normal group, vehicle was given instead of CHA.

[2] = system: CHA(N^6-cyclohexyladenosine)-induced gastric ulcer; assay: Effect on CHA-induced gastric ulcer; details: 10 mg/kg orally 30 minutes before CHA; for inhibition %: inhibition of ulcer index vs Control; for ulcer index (mm^2): male rats, CHA 1 mg/kg subcutaneously, stomachs examined after 7 hours, Control 65.0 ± 18.4
Description: Male Sprague-Dawley rats, weighing 225-259 g, were deprived of food but allowed free access to water for 24 hours. CHA was given subcutaneously at a dose of 1 mg/kg. After 7 hours, animals were killed and stomachs were removed. Subsequently, the stomachs were inflated by injecting 12 ml of 2% formalin to fix the inner layer of gastric walls. Ten minutes later, they were incised along the greater curvature and examined for lesions. Test Compounds (1) to (5) (10 mg/kg) or vehicle (to control group) was given orally 30 minutes before CHA administration.

[3] = system: serum amylase increment induced by caerulein administration with water immersion restraint stress; assay: Effect on serum amylase increment induced by caerulein administration with water immersion restraint stress; details: male rats, caerulein 50 µg/kg s.c. + water immersion restraint at 23°C for 7 hours; 1 mg/kg orally 30 minutes before caerulein; mean ± standard error; control group 22.5 ± 3.3
Description: Male Sprague-Dawley rats (6 rats for one group) weighing 210 to 240 g were fasted for 24 hours but allowed free access to water ad libitum. Immediately after caerulein administration (50 µg/kg/2 ml s.c.), rats were placed in restraint cages and immersed in water at 23°C for 7 hours. The animals were killed and blood sample was collected from femoral blood vessels. Serum amylase was measured using Neo-Amylase Test "DAIICHI" (trademark, prepared by DAIICHI KAGAKU YAKUHIN). The test compound (1) (1 mg/kg/5 ml) for the test group or vehicle (0.1 % methyl cellulose, 5 ml/kg) for the control group was given orally 30 minutes before caerulein administration.
Serum amylase concentration was expressed as mean ± standard error.

[4] = system: ischemia induced gastric ulcer; assay: Effect on ischemia induced gastric ulcer (left gastric artery ligation)
Description: Male Sprague-Dawley rats (9 or 10 rats for one group) weighing 230 to 270 g were fasted for 24 hours but allowed free access to water ad libitum.
Under ether anesthesia, the abdomen was incised and the left gastric artery was ligated. After closing the abdomen, animals were maintained an regular feed with water ad libitum. The test compound (1) (10 mg/kg/5 ml) for the test group or vehicle (0.1 % methyl cellulose, 5 ml/kg) for the control group was given orally twice a day (9:00 a.m. and 5:00 p.m.) from the first day after the operation for 3 consecutive days. On the fourth day after the operation, the test compound (for the test group) or vehicle (for the control group) was given at 9:00 a.m. and animals were killed at.5:00 p.m.. The stomach was examined for ulcers.
Ulcer index was expressed as lesion area (mean ± standard error).

SMILES | inhibition % [1] [%] | serum amylase (10^3 IU/ℓ) [1] | inhibition % [2] [%] | ulcer index (mm^2) [2] [mm^2] | serum amylase (10^3 IU/L) [3] | inhibition % ([4]; inhibition of ulcer index vs control group, 10 mg/kg orally twice a day) [%] | ulcer index (mm^2) ([4]; male rats, left gastric artery ligated, 10 mg/kg orally twice a day from first day after operation, killed on fourth day, lesion area, mean ± standard error, control group 26.2 ± 6.0)
O=C(O)C[C@H]1CCCCN1C(=O)C=Cc1c(-c2ccccc2)nn2ccccc12 [Test Compound (3), (2R)-1-[3-(2-Phenylpyrazolo[1,5-a]pyridin-3-yl)acryloyl]-2-(carboxymethyl)piperidine] | 92.6 | 5.9 ± 1.0 10^3 IU/ℓ | 99.8 | 0.1 ± 0.1 | – | – | –
O=C(C=Cc1c(-c2ccccc2)nn2ccccc12)N1CCCC[C@@H]1CCO [Test Compound (1), (2R)-1-[3-(2-Phenylpyrazolo[1,5-a]pyridin-3-yl)acryloyl]-2-(2-hydroxyethyl)piperidine] | 69.4 | 11.5 ± 5.8 10^3 IU/ℓ | 99.4 | 0.4 ± 0.4 | 13.8 ± 1.0 10^3 IU/L | 45.8 | 14.2 ± 4.0
O=C(O)CCCn1nc(-c2c(-c3ccccc3)nn3ccccc23)ccc1=O [Test Compound (2), 3-[2-(3-Carboxypropyl)-3-oxo-2,3-dihydropyridazin-6 yl]-2-phenylpyrazolo[1,5-a]pyridine] | 99.6 | 4.2 ± 0.3 10^3 IU/ℓ | 97.1 | 1.9 ± 1.9 | – | – | –

From EP0497258B1, “Use of adenosine antagonists in the prevention and treatment of pancreatitis and ulcer” (FUJISAWA PHARMACEUTICAL CO., LTD., priority 1991, dated 1992)
